# Laboratory results reported in EP2385948B1, “FUSED THIAZOLO AND OXAZOLO PYRIMIDINONES” (Torrent Pharmaceuticals Limited, priority 2009, dated 2011).
# System: erythropoietin
# Test: In vitro erythropoietin induction (ELISA of cell culture supernatant)
# Conditions: for EPO fold induction: Hep3B cell line, 50 uM, 16 hours, relative to vehicle control; for fold induction at 200 µM: read-out: EPO fold induction, Hep3B cell line, 200 uM, 16 hours, relative to vehicle control
# Experimental: Hep3B cell line (ATCC HB8064) was employed. Induction of erythropoietin was carried out for the indicated dose of compounds for 16 hours duration. At the end of 16 hours, cell culture medium was collected and centrifuged to remove any debris. Supernatant obtained was analyzed for erythropoietin by ELISA (R&D systems, USA). The results were expressed as fold induction as compared to vehicle control.
SMILES,"fold induction at 200 µM (Homo sapiens, Hep3B, 16 h)",other results
O=C([O-])CNC(=O)c1c(O)nc2sc3c(n2c1=O)CCCC3.[Na+],–,EPO fold induction: ++ (++ indicates 2-4 fold)
"O=C(O)CNC(=O)c1c(O)nc2sc3c(n2c1=O)CCCC3 [Compound 1, [(2-Hydroxy-4-oxo-5,6,7,8-tetrahydro-4H-9-thia-1,4a-diaza-fluorene-3-carbonyl)-amino]-acetic acid]",–,EPO fold induction: +++ (+++ indicates 5-8 fold)
"CCOC(=O)N1CCc2c(sc3nc(O)c(C(=O)NCC(=O)O)c(=O)n23)C1 [Compound 2, 3-(Carboxymethyl-carbamoyl)-2-hydroxy-4-oxo-5,8-dihydro-4H,6H-9-thia-1,4a,7-triaza-fluorene-7-carboxylic acid ethyl ester]",5 to 8,–
"CS(=O)(=O)N1CCc2c(sc3nc(O)c(C(=O)NCC(=O)O)c(=O)n23)C1 [Compound 3, [(2-Hydroxy-7-methanesulfonyl-4-oxo-5,6,7,8-tetrahydro-4H-9-thia-1,4a,7-triaza-fluorene-3-carbonyl)-amino]-acetic acid]",2 to 4,–
"CC(C)CC(=O)N1CCc2c(sc3nc(O)c(C(=O)NCC(=O)O)c(=O)n23)C1 [Compound 4, {[2-Hydroxy-7-(3-methyl-butyryl)-4-oxo-5,6,7,8-tetrahydro-4H-9-thia-1,4a,7-triaza-fluorene-3-carbonyl]-amino}-acetic acid]",2 to 4,–
"CC(C)S(=O)(=O)N1CCc2c(sc3nc(O)c(C(=O)NCC(=O)O)c(=O)n23)C1 [Compound 5, {[2-Hydroxy-4-oxo-7-(propane-2-sulfonyl)-5,6,7,8-tetrahydro-4H-9-thia-1,4a,7-triaza-fluorene-3-carbonyl]-amino}-acetic acid]",2 to 4,–
"O=C(NC1(C(=O)O)CCCC1)c1c(O)nc2sc3c(n2c1=O)CCCC3 [Compound 6, 1-[(2-Hydroxy-4-oxo-5,6,7,8-tetrahydro-4H-9-thia-1,4a-diaza-fluorene-3-carbonyl)-amino]-cyclopentanecarboxylic acid]",< 2,–
"Cc1ccc(S(=O)(=O)N2CCc3c(sc4nc(O)c(C(=O)NCC(=O)O)c(=O)n34)C2)cc1 [Compound 7, {[2-Hydroxy-4-oxo-7-(toluene-4-sulfonyl)-5,6,7,8-tetrahydro-4H-9-thia-1,4a,7-triaza-fluorene-3-carbonyl]-amino}-acetic acid]",2 to 4,–
"O=C(O)CNC(=O)c1c(O)nc2sc3c(n2c1=O)CCN(C(=O)Nc1ccccc1)C3 [Compound 8, [(2-Hydroxy-4-oxo-7-phenylcarbamoyl-5,6,7,8-tetrahydro-4H-9-thia-1,4a,7-triaza-fluorene-3-carbonyl)-amino]-acetic acid]",2 to 4,–
"O=C(O)CNC(=O)c1c(O)nc2sc3c(n2c1=O)CCN(C(=O)C1CC1)C3 [Compound 9, [(7-Cyclopropanecarbonyl-2-hydroxy-4-oxo-5,6,7,8-tetrahydro-4H-9-thia-1,4a,7-triaza-fluorene-3-carbonyl)-amino]-acetic acid]",5 to 8,–
"O=C(O)CNC(=O)c1c(O)nc2sc3c(n2c1=O)CCC3 [Compound 11, [(2-Hydroxy-4-oxo-7,8-dihydro-4H,6H-cyclopenta[4,5]thiazolo[3,2-a]pyrimidine-3-carbonyl)-amino]-acetic acid]",5 to 8,–
"CC(C)(C)C1CCc2c(sc3nc(O)c(C(=O)NCC(=O)O)c(=O)n23)C1 (stereo not shown) [Compound 13, [(7-tert-Butyl-2-hydroxy-4-oxo-5,6,7,8-tetrahydro-4H-9-thia-1,4a-diaza-fluorene-3-carbonyl)-amino]-acetic acid]",< 2,–
"O=C(O)CCNC(=O)c1c(O)nc2sc3c(n2c1=O)CCC3 [Compound 14, 3-[(2-Hydroxy-4-oxo-7,8-dihydro-4H,6H-cyclopenta[4,5]thiazolo[3,2-a]pyrimidine-3-carbonyl)-amino]-propionic acid]",2 to 4,–
"CC(C)(C)C1CCc2c(sc3nc(O)c(C(=O)NCCC(=O)O)c(=O)n23)C1 (stereo not shown) [Compound 15, 3-[(7-tert-Butyl-2-hydroxy-4-oxo-5,6,7,8-tetrahydro-4H-9-thia-1,4a-diaza-fluorene-3-carbonyl)-amino]-propionic acid]",< 2,–
"O=C(O)CNC(=O)c1c(O)nc2sc3c(n2c1=O)CCN(C(=O)c1ccc(F)cc1)C3 [Compound 16, {[7-(4-Fluoro-benzoyl)-2-hydroxy-4-oxo-5,6,7,8-tetrahydro-4H-9-thia-1,4a,7-triaza-fluorene-3-carbonyl]-amino}-acetic acid]",5 to 8,–
"O=C(O)CNC(=O)c1c(O)nc2sc3c(n2c1=O)CCN(S(=O)(=O)c1ccc(Cl)s1)C3 [Compound 17, {[7-(5-Chloro-thiophene-2-sulfonyl)-2-hydroxy-4-oxo-5,6,7,8-tetrahydro-4H-9-thia-1,4a,7-triaza-fluorene-3-carbonyl]-amino}-acetic acid]",2 to 4,–

SMILES,"fold induction at 200 µM (Homo sapiens, Hep3B, 16 h)",other results
"O=C(O)CNC(=O)c1c(O)nc2sc3c(n2c1=O)CCN(c1ccc(C(F)(F)F)cn1)C3 [Compound 18, {[2-Hydroxy-4-oxo-7-(5-trifluoromethyl-pyridin-2-yl)-5,6,7,8-tetrahydro-4H-9-thia-1,4a,7-triaza-fluorene-3-carbonyl]-amino}-acetic acid]",9 to 16,–
"O=C(O)CNC(=O)c1c(O)nc2sc3c(n2c1=O)CCN(S(=O)(=O)c1ccc(OC(F)(F)F)cc1)C3 [Compound 19, {[2-Hydroxy-4-oxo-7-(4-trifluoromethoxy-benzenesulfonyl)-5,6,7,8-tetrahydro-4H-9-thia-1,4a,7-triaza-fluorene-3-carbonyl]-amino}-acetic acid]",2 to 4,–
"CC(C)(C)C(=O)N1CCc2c(sc3nc(O)c(C(=O)NCC(=O)O)c(=O)n23)C1 [Compound 20, {[7-(2,2-Dimethyl-propionyl)-2-hydroxy-4-oxo-5,6,7,8-tetrahydro-4H-9-thia-1,4a,7-triaza-fluorene-3-carbonyl]-amino}-acetic acid]",5 to 8,–
"CCCCc1ccc(C(=O)N2CCc3c(sc4nc(O)c(C(=O)NCC(=O)O)c(=O)n34)C2)cc1 [Compound 21, {[7-(4-Butyl-benzoyl)-2-hydroxy-4-oxo-5,6,7,8-tetrahydro-4H-9-thia-1,4a,7-triaza-fluorene-3-carbonyl]-amino}-acetic acid]",9 to 16,–
"O=C(O)CNC(=O)c1c(O)nc2sc3c(n2c1=O)CCN(C(=O)c1ccc(OC(F)(F)F)cc1)C3 [Compound 22, {[2-Hydroxy-4-oxo-7-(4-trifluoromethoxy-benzoyl)-5,6,7,8-tetrahydro-4H-9-thia-1,4a,7-triaza-fluorene-3-carbonyl]-amino}-acetic acid]",5 to 8,–
"O=C(O)CNC(=O)c1c(O)nc2sc3c(n2c1=O)CCN(C(=S)Nc1ccc(F)cc1)C3 [Compound 24, {[7-(4-Fluoro-phenylthiocarbamoyl)-2-hydroxy-4-oxo-5,6,7,8-tetrahydro-4H-9-thia-1,4a,7-triaza-fluorene-3-carbonyl]-amino}-acetic acid]",5 to 8,–
"CC(C)NC(=S)N1CCc2c(sc3nc(O)c(C(=O)NCC(=O)O)c(=O)n23)C1 [Compound 25, [(2-Hydroxy-7-isopropylthiocarbamoyl-4-oxo-5,6,7,8-tetrahydro-4H-9-thia-1,4a,7-triaza-fluorene-3-carbonyl)-amino]-acetic acid]",2 to 4,–
"O=C(O)CNC(=O)c1c(O)nc2sc3c(n2c1=O)CCN(C(=O)OCc1ccccc1)C3 [Compound 26, 3-(Carboxymethyl-carbamoyl)-2-hydroxy-4-oxo-5,8-dihydro-4H,6H-9-thia-1,4a,7-triaza-fluorene-7-carboxylic acid benzyl ester]",9 to 16,–
"O=C(O)CNC(=O)c1c(O)nc2sc3c(n2c1=O)CCN(C(=O)Cc1ccc(Cl)cc1)C3 [Compound 28, ({7-[2-(4-Chloro-phenyl)-acetyl]-2-hydroxy-4-oxo-5,6,7,8-tetrahydro-4H-9-thia-1,4a,7-triaza-fluorene-3-carbonyl}-amino)-acetic acid]",9 to 16,–
"O=C(O)CNC(=O)c1c(O)nc2sc3c(n2c1=O)CCN(C(=O)CC1CCCC1)C3 [Compound 29, {[7-(2-Cyclopentyl-acetyl)-2-hydroxy-4-oxo-5,6,7,8-tetrahydro-4H-9-thia-1,4a,7-triaza-fluorene-3-carbonyl]-amino}-acetic acid]",9 to 16,–
"O=C(O)CCNC(=O)c1c(O)nc2sc3c(n2c1=O)CCCCC3 [Compound 30, 3-[(2-Hydroxy-4-oxo-6,7,8,9-tetrahydro-4H,5H-10-thia-1,4a-diaza-benzo[a]azulene-3-carbonyl)-amino]-propionic acid]",< 2,–
"COc1ccc(CN2CCc3c(sc4nc(O)c(C(=O)NCC(=O)O)c(=O)n34)C2)cc1 [Compound 31, {[2-Hydroxy-7-(4-methoxy-benzyl)-4-oxo-5,6,7,8-tetrahydro-4H-9-thia-1,4a,7-triaza-fluorene-3-carbonyl]-amino}-acetic acid]",5 to 8,–
"O=C(O)CNC(=O)c1c(O)nc2sc3c(n2c1=O)CCN(C(=O)c1ccc(Cl)nc1)C3 [Compound 33, {[7-(6-Chloro-pyridine-3-carbonyl)-2-hydroxy-4-oxo-5,6,7,8-tetrahydro-4H-9-thia-1,4a,7-triaza-fluorene-3-carbonyl]-amino}-acetic acid]",2 to 4,–
"O=C(O)CNC(=O)c1c(O)nc2sc3c(n2c1=O)CCN(c1ccc(Cl)nn1)C3 [Compound 35, {[7-(6-Chloro-pyridazin-3-yl)-2-hydroxy-4-oxo-5,6,7,8-tetrahydro-4H-9-thia-1,4a,7-triaza-fluorene-3-carbonyl]-amino}-acetic acid]",< 2,–
"N#Cc1cccnc1N1CCc2c(sc3nc(O)c(C(=O)NCC(=O)O)c(=O)n23)C1 [Compound 36, {[7-(3-Cyano-pyridin-2-yl)-2-hydroxy-4-oxo-5,6,7,8-tetrahydro-4H-9-thia-1,4a,7-triaza-fluorene-3-carbonyl]-amino}-acetic acid]",–,"fold induction at 12.5 µM (Homo sapiens, Hep3B, 16 h, read-out: EPO fold induction, Hep3B cell line, 12.5 uM, 16 hours, relative to vehicle control): < 2"
